Measurements as given in paper PMC9395450, “Phase 1 study to evaluate the effects of rifampin on pharmacokinetics of pevonedistat, a NEDD8-activating enzyme inhibitor in patients with advanced solid tumors” (Investigational New Drugs, 2022).
Entries after “also recorded” stand apart in the source; their conditions may differ. Read-outs that look alike come from different tables or passages of the source.

Columns and labels:
[1] = set-up: method as in PMID 31355467; settings: ref [15], cited from earlier work
[2] = Safety: treatment-emergent adverse events (NCI CTCAE v4.03), safety population; format: in vivo, human; settings: N=20
Procedure: Safety was assessed by incidence and severity of treatment-emergent adverse events (TEAEs), vital signs, physical examinations, electrocardiograms, and clinical laboratory tests, and toxicities were graded according to the National Cancer Institute Common Terminology Criteria for Adverse Events (NCI CTCAE), version 4.03.
(§1) Pevonedistat PK was assessed in all patients who received the protocol-specified pevonedistat and rifampin doses in Part A, and had sufficient concentration–time data to permit reliable estimation of PK parameters (PK-evaluable population). PK data were summarized using descriptive statistics. For assessment of the effect of rifampin on pevonedistat PK, the ratios of geometric mean Cmax, AUClast and AUCinf of pevonedistat in the presence of rifampin on Day 10 versus in the absence of rifampin on Day 1 and associated 90% CI were calculated based on analysis of variance. Estimates for each PK parameter were obtained using a mixed effects model of log(PK parameter) with fixed terms for the rifampin effect and random terms for patient. Safety was assessed in all patients who received at least one dose of pevonedistat, and TEAEs were coded according to the Medical Dictionary for Regulatory Activities (MedDRA), version 20.0.

[3] = set-up: method as in PMID 33089874; settings: following intravenous administration; ref [14]; cited from earlier work
[4] = ref [10]–[13], cited from earlier work
[5] = set-up: method as in PMID 30845347; settings: strong CYP3A/P-glycoprotein inhibitor itraconazole; ref [16]; cited from earlier work
[6] = Phase 1 drug-drug interaction study: single-dose pevonedistat plasma PK in the absence or presence of rifampin; format: in vivo, human; settings: for AUC(0-t) / AUC(0-inf) / Cmax / clearance / Vd / half-life: human, plasma; for clearance: 50 mg/m2, plasma clearance, read-out: CL geometric mean (CV) (converted); for Vd: read-out: Vss geometric mean (CV); for half-life: read-out: t1/2z mean (SD) (converted)
Procedure: This was an open-label, multi-center study in adult patients with advanced solid tumors (NCT03486314). Eligible patients received a single 50 mg/m^2 pevonedistat dose via a 1-h infusion on Days 1 and 10, and daily oral dosing of rifampin 600 mg Days 3–11. Serial blood samples for the measurement of pevonedistat plasma concentrations were collected over 48 h following pevonedistat dosing. Pevonedistat PK parameters and ratios of geometric means for maximal plasma concentration (Cmax) and area under the plasma concentration versus time curve from time 0 to infinity (AUC0–inf) were calculated in the presence of rifampin (Day 10) and in reference to the absence of rifampin (Day 1), with associated 90% confidence intervals (CI) estimated using analysis of variance.
Serial blood samples for measuring pevonedistat concentrations were collected at intervals from 0 (predose) to 48 h after the single doses of pevonedistat on Day 1 and Day 10. Plasma samples were analyzed for pevonedistat concentrations using a previously reported validated liquid chromatography/mass spectrometry (LC–MS/MS) assay.
Pevonedistat PK parameters were calculated by noncompartmental analysis of the pevonedistat plasma concentration–time data using Phoenix WinNonlin version 8.1 (Certara, Princeton, NJ). The following single-dose PK parameters were derived: Cmax, AUC0-inf, AUC from time 0 to the last quantifiable concentration (AUC0–last), terminal disposition phase half-life (t1/2), clearance (CL), and volume of distribution at steady state (Vss).
as §1

[7] = most common TEAEs (≥ 15% of patients)
[8] = single dose 50 mg/m^2 ± rifampin
[9] = single dose 50 mg/m^2 ± rifampin, listed as Pevonedistat
[10] = iv, 50 mg/m2, single 50 mg/m^2 IV, in the absence of rifampin (Day 1), N=20
[11] = iv, 50 mg/m2, single 50 mg/m^2 IV, in the presence of rifampin (Day 10), N=17
[12] = presence of rifampin (Day 10) vs absence (Day 1)

In the case of `NS(=O)(=O)OC[C@@H]1C[C@@H](n2ccc3c(N[C@H]4CCc5ccccc54)ncnc32)C[C@@H]1O` [pevonedistat, Pevonedistat], the PK dose linearity ([1]; dose range 25–278 mg/m^2) is listed as “linear”, the “impact of age, sex, tumor type, mild or moderate renal impairment (creatinine clearance ≥ 30 mL/min) on PK” value [1] is listed as “no impact” and the “inter-patient variability in pevonedistat clearance” value [1] is listed as “approximately 30%”. For the same compound, the “TEAE of hypersensitivity leading to interruption of study drug or permanent withdrawal, patients” value [2] was “Two”, the “TEAE decreased appetite, patients” value [2, 7] was 4 [20%] n [%] and the “TEAE diarrhea, patients” value [2, 7] was 3 [15%] n [%]. The “TEAE fatigue, patients” value [2, 7] was 3 [15%] n [%], the “Drug-related TEAEs, Events” value [2, 8] was 14 and the “Grade ≥ 3 TEAEs, Events” value [2, 8] was 17. The “Grade ≥ 3 drug related TEAEs, Events” value [2, 8] was 3, the “Grade ≥ 3 drug related TEAEs, Patients (%)” value [2, 8] was 3 (15%) n (%) and the “On-study deaths, Events” value [2, 8] was 1. The “Serious TEAEs leading to study drug discontinuation, Events” value [2, 8] was 1, the “Serious TEAEs leading to study drug discontinuation, Patients (%)” value [2, 8] was 1 (5.0) n (%) and the “Serious TEAEs, Events” value [2, 8] was 4. For the same compound, the “Serious TEAEs, Patients (%)” value [2, 8] was 3 (15%) n (%), the “Serious TEAEs, drug related, Events” value [2, 8] was 1 and the “Serious TEAEs, drug related, Patients (%)” value [2, 8] was 1 (5.0) n (%). The “TEAEs leading to study drug discontinuation, Events” value [2, 8] was 1, the “TEAEs leading to study drug discontinuation, Patients (%)” value [2, 8] was 1 (5.0) n (%) and the “TEAEs leading to study drug dose delayed, Events” value [2, 8] was 0. For the same compound, the “TEAEs leading to study drug dose delayed, Patients (%)” value [2, 8] was 0 n (%), the “TEAEs leading to study drug dose interruption, Events” value [2, 8] was 0 and the “TEAEs leading to study drug dose interruption, Patients (%)” value [2, 8] was 0 n (%). The “TEAEs leading to study drug dose reduction, Events” value [2, 8] was 0, the “TEAEs leading to study drug dose reduction, Patients (%)” value [2, 8] was 0 n (%) and the “TEAEs, Events” value [2, 8] was 82. For the same compound, the “TEAEs, Patients (%)” value [2, 8] was 16 (80%) n (%), the “Drug-related TEAEs, Patients (%)” value [2, 9] was 9 (45.0) n (%) and the “Grade ≥ 3 TEAEs, Patients (%)” value [2, 9] was 7 (35.0) n (%). For the same compound, the “Grade ≥ 3 drug related TEAEs, Patients (%)” value [2, 9] was 3 (15.0) n (%), the “On-study deaths, Patients (%)” value [2, 9] was 1 (5.0) n (%) and the “Serious TEAEs, Patients (%)” value [2, 9] was 3 (15.0) n (%). For the same compound, the “TEAEs, Patients (%)” value [2, 9] was 16 (80.0) n (%), the whole-blood-to-plasma ratio [3] was 40 and the “recommended dose for clinical investigation as a single agent” value ([4]; Days 1, 3 and 5 in 21-day cycles) was 50 mg/m^2. The “maximum tolerated dose (MTD)” value ([4]; in combination with azacitidine) was 20 mg/m^2, the “maximum tolerated dose (MTD)” value ([4]; in combination with carboplatin plus paclitaxel) was 20 mg/m^2 and the “maximum tolerated dose (MTD)” value ([4]; in combination with docetaxel) was 25 mg/m^2. For the same compound, the “effect of itraconazole on pevonedistat systemic exposure / PK” value [5] was “no clinically relevant effects; also recorded: did not result in clinically meaningful increase”, the “geometric mean AUClast in the presence of rifampin as % of that in the absence” value ([6]; Day 10 vs Day 1, 90% CI 68.4%–90.1%) was 78.5% and the “geometric mean AUC∞ (AUC0–inf) in the presence of rifampin as % of that in the absence” value ([6]; Day 10 vs Day 1, 90% CI 69.2%–90.2%) was 79%. The “geometric mean Cmax in the presence of rifampin as % of that in the absence” value ([6]; Day 10 vs Day 1, 90% CI 79.2%–117%) was 96.2%, the “decrease in pevonedistat systemic exposure with rifampin” value ([6]; coadministration with rifampin) was “approximately 20%” and the AUC(0-t) ([6]; intravenous, 50 mg/m^2, mixed-effects model, in the absence of rifampin, N=20, read-out: AUClast LS mean) was 2990 ng·h/mL. It also gave an AUC(0-inf) ([6]; intravenous, 50 mg/m^2, mixed-effects model, in the absence of rifampin, N=20, read-out: AUC∞ LS mean) of 3030 ng·h/mL, a Cmax ([6]; intravenous, 50 mg/m^2, mixed-effects model, in the absence of rifampin, N=20, read-out: Cmax LS mean) of 602 ng/mL and an AUC(0-t) ([6]; intravenous, mixed-effects model, in the presence of rifampin, N=17, read-out: AUClast LS mean) of 2340 ng·h/mL. The AUC(0-inf) ([6]; intravenous, mixed-effects model, in the presence of rifampin, N=17, read-out: AUC∞ LS mean) was 2390 ng·h/mL, the Cmax ([6]; intravenous, mixed-effects model, in the presence of rifampin, N=17, read-out: Cmax LS mean) was 579 ng/mL and the clearance ([6]; iv, single 50 mg/m^2 IV, in the absence of rifampin (Day 1), N=20) was 550 mL/min. For the same compound, the clearance ([6]; iv, single 50 mg/m^2 IV, in the presence of rifampin (Day 10), N=17) was 692 mL/min, the AUC(0-t) ([6]; iv, 50 mg/m2, single 50 mg/m^2 IV, in the absence of rifampin (Day 1), N=20, read-out: AUClast geometric mean (CV)) was 2990 ng·h/mL and the AUC(0-inf) ([6]; iv, 50 mg/m2, single 50 mg/m^2 IV, in the absence of rifampin (Day 1), N=20, read-out: AUC∞ geometric mean (CV)) was 3030 ng·h/mL. The Vd [6, 10] was 278 L, the half-life [6, 10] was roughly 7 h and the AUC(0-t) ([6]; iv, 50 mg/m2, single 50 mg/m^2 IV, in the presence of rifampin (Day 10), N=17, read-out: AUClast geometric mean (CV)) was 2330 ng·h/mL. For the same compound, the AUC(0-inf) ([6]; iv, 50 mg/m2, single 50 mg/m^2 IV, in the presence of rifampin (Day 10), N=17, read-out: AUC∞ geometric mean (CV)) was 2370 ng·h/mL, the Vd [6, 11] was 265 L and the half-life [6, 11] was 5.7 h. The Cmax ([6]; single 50 mg/m^2 1-h IV infusion, in the absence of rifampin (Day 1), N=20, read-out: Cmax geometric mean (CV)) was 602 ng/mL, the Cmax ([6]; single 50 mg/m^2 1-h IV infusion, in the presence of rifampin 600 mg daily (Day 10), N=17, read-out: Cmax geometric mean (CV)) was 564 ng/mL and the “CL geometric mean (CV)” value ([6]; plasma clearance, single 50 mg/m^2 IV, in the absence of rifampin (Day 1), N=20) was 33.1 (31.2%) L/h. For the same compound, the “AUClast LS mean ratio (90% CI)” value [6, 12] was 0.785 (0.684–0.901), the “AUC∞ LS mean ratio (90% CI)” value [6, 12] was 0.790 (0.692–0.902) and the “Cmax LS mean ratio (90% CI)” value [6, 12] was 0.962 (0.792–1.17). For the same compound, the “t1/2z mean (SD)” value ([6]; single 50 mg/m^2 IV, in the absence of rifampin (Day 1), N=20) was 7.4 (1.4) h.
